For the experiment, the system named is SCD-Selp−/− mice. In words: qFILM detection of circulating NETs arriving in the lung microcirculation, SCD-Selp−/− mice. Format: in vivo, mouse. To be noted: IV 10 μmole/kg oxy-Hb with 10 mg/kg inhibitor vs oxy-Hb alone, significant. How it is done: (FIG. 5A) Experimental scheme: SCD or SCD-Selp^−/− mice were IV administered 10 μmole/kg oxy-Hb (10 oxy-Hb) without or with 10 mg/kg GSDMD inhibitors LDC75591 or Disulfiram. In FIGS. 5C-5D, venous blood was processed to generate PPP and cNETs detected in PPP using Imaging Flow Cytometry. Imaging Flow Cytometry data was quantified to estimate concentration of cNETs (#cNETs/μl of plasma). In FIGS. 5B, and 5E-5F, quantitative fluorescence intravital lung microscopy (qFILM) was used to detect arrival of circulating NETs (cNETs) within the lung microcirculation. Number of cNETs entering per FOV over a 1-minute duration (#cNETs/FOV/min) were quantified. In FIGS. 5G-5J, qFILM was used to assess the absence or presence of pulmonary vaso-occlusion using the experimental strategy described in FIG. 1A. Pulmonary vaso-occlusions (PVOs) were compared between treatment groups using following two parameters: Number of PVOs per Field of View (#PVOs/FOV) and number of large PVOs (with area>1000 μm^2) per FOV. […]
Quantitative fluorescence intravital lung microscopy (qFILM) has been used widely for in vivo assessment of pulmonary vasoocclusion in mice with SCD [Bennewitz M F et al., (2017); Vats R, Brzoska T, Bennewitz M F, et al. (2020); Vats R, Tutuncuoglu E, Pradhan-Sundd T, Tejero J, Shaw G D, Sundd P. (2020); Bennewitz M F, Tutuncuoglu E, Gudapati S, et al. (2020)] […]

For the molecule `COc1ccccc1-c1cc2n(n1)Cc1ccc(NC(C)=O)cc1OC2` [LDC7559], the “#cNETs/FOV/min in the lung, less than 10 oxy-Hb alone” value stood at 4 folds.

Values taken from patent publication US20240358721A1, “GASDERMIN-D INHIBITORS AND USES THEREOF FOR TREATING PULMONARY VASO-OCCLUSION” (UNIVERSITY OF PITTSBURGH-OF THE COMMONWEALTH SYSTEM OF …, priority 2021, published 2024).
